Bridge positions count the residues as written; N and C are the ends. Square brackets hold non-standard residues; d marks the D form. Peptide text beside a SMILES is read from it. * marks the point of attachment. Phe(3-CF3) = N[C@@H](Cc1cccc(C(F)(F)F)c1)C(=O)O; Ala(morpholin-4-yl) = N[C@@H](CN1CCOCC1)C(=O)O; Phe(4-COOH) = N[C@@H](Cc1ccc(C(=O)O)cc1)C(=O)O; Bip = N[C@@H](Cc1ccc(-c2ccccc2)cc1)C(=O)O; NH(CH2)14COOH = O=C(O)CCCCCCCCCCCCCCN*; Phe(3-Me) = Cc1cccc(C[C@H](N)C(=O)O)c1; NH(CH2)12COOH = O=C(O)CCCCCCCCCCCCN*; Val(3-OH) = CC(C)(O)[C@H](N)C(=O)O; Cha = N[C@@H](CC1CCCCC1)C(=O)O; PEG4 = NCCOCCOCCOCCOCCC(=O)O; Carboxymethyl = O=C(O)C*; Orn = NCCC[C@H](N)C(=O)O; Dab = NCC[C@H](N)C(=O)O; Nva = CCC[C@H](N)C(=O)O; AEEA = NCCOCCOCC(=O)O
Target: T1, PD-1/PD-L1 interaction (PE-labeled human PD-L1-Ig binding to Jurkat cell line over-expressing human PD-1) (Homo sapiens, UniProt Q15116)
T1 construct: expressed in transfected cells; host or cells: Jurkat
T1 sequence (Q15116 25-288): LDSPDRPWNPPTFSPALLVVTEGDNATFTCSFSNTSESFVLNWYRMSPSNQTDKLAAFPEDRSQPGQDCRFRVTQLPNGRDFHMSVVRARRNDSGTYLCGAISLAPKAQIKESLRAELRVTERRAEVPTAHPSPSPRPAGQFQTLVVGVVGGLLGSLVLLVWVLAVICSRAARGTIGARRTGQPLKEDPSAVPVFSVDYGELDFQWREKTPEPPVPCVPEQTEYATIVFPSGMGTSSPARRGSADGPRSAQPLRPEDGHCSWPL
Assay: Jurkat-PD-1 Cell Binding High-Content Screening Assay (CBA)
Format: cell-based
Settings: Jurkat cell line over-expressing human PD-1; PE-labeled PD-L1-Ig 20 nM final; read-out: Jurkat hPD1-PDL1 IC50
How it was run: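 Jurkat-hPD-1 cells, DMEM/10% FCS; cpd 2 h 37° C; PE-PD-L1-Ig 20 nM final, 1 h; 4% PFA fix + Hoechst 33342, 3× dPBS wash; high-content imaging read-out.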

Row | Structure (SMILES) | IC50 [nM]
1 | Cc1cccc(C[C@@H]2NC(=O)[C@H](CC(=O)O)NC(=O)[C@H](Cc3ccc(OCC(=O)O)cc3)NC(=O)[C@H](CN3CCOCC3)NC(=O)CSC[C@@H](C(=O)N[C@@H](CCN)C(=O)NCCOCCOCC(=O)NCCOCCOCC(=O)NCCCCCCCCCCCCC(=O)O)NC(=O)[C@H](CCC(=O)O)NC(=O)[C@H](C(C)(C)O)NC(=O)[C@H](CC3CCCCC3)NC(=O)[C@H](CCN)NC(=O)[C@@H](CC(C)C)NC(=O)[C@H](CCCN)NC(=O)[C@H](Cc3ccc(C(=O)O)cc3)NC(=O)[C@H](Cc3ccc(-c4ccccc4)cc3)NC(=O)[C@H](Cc3ccc(C(=O)O)cc3)NC2=O)c1 [Compound 2898] ({CH2CO}-[Ala(morpholin-4-yl)]Y(Carboxymethyl)D[Phe(3-Me)][Phe(4-COOH)][Bip][Phe(4-COOH)][Orn][dL][Dab][Cha][Val(3-OH)]EC[Dab][AEEA][AEEA]-{NH(CH2)12COOH}; thioether N-14) | 5.5
2 | Cc1cccc(C[C@@H]2NC(=O)[C@H](CC(=O)O)NC(=O)[C@H](Cc3ccc(OCC(=O)O)cc3)NC(=O)[C@H](CN3CCOCC3)NC(=O)CSC[C@@H](C(=O)N[C@@H](CCN)C(=O)NCCOCCOCC(=O)NCCOCCOCC(=O)NCCCCCCCCCCCCC(=O)O)NC(=O)[C@H](CC(=O)O)NC(=O)[C@H](C(C)(C)O)NC(=O)[C@H](CC3CCCCC3)NC(=O)[C@H](CCN)NC(=O)[C@@H](CC(C)C)NC(=O)[C@H](CCCN)NC(=O)[C@H](Cc3ccc(C(=O)O)cc3)NC(=O)[C@H](Cc3ccc(-c4ccccc4)cc3)NC(=O)[C@H](Cc3ccc(C(=O)O)cc3)NC2=O)c1 [Compound 2899] ({CH2CO}-[Ala(morpholin-4-yl)]Y(Carboxymethyl)D[Phe(3-Me)][Phe(4-COOH)][Bip][Phe(4-COOH)][Orn][dL][Dab][Cha][Val(3-OH)]DC[Dab][AEEA][AEEA]-{NH(CH2)12COOH}; thioether N-14) | 5.4
3 | Cc1cccc(C[C@@H]2NC(=O)[C@H](CC(=O)O)NC(=O)[C@H](Cc3ccc(C(=O)O)cc3)NC(=O)[C@H](CN3CCOCC3)NC(=O)CSC[C@@H](C(=O)N[C@@H](CCN)C(=O)NCCOCCOCC(=O)NCCOCCOCC(=O)NCCCCCCCCCCCCC(=O)O)NC(=O)[C@H](CO)NC(=O)[C@H](C(C)(C)O)NC(=O)[C@H](CC3CCCCC3)NC(=O)[C@H](CCN)NC(=O)[C@@H](CC(C)C)NC(=O)[C@H](CCCN)NC(=O)[C@H](Cc3ccc(C(=O)O)cc3)NC(=O)[C@H](Cc3ccc(-c4ccccc4)cc3)NC(=O)[C@H](Cc3ccc(C(=O)O)cc3)NC2=O)c1 [Compound 2900] ({CH2CO}-[Ala(morpholin-4-yl)][Phe(4-COOH)]D[Phe(3-Me)][Phe(4-COOH)][Bip][Phe(4-COOH)][Orn][dL][Dab][Cha][Val(3-OH)]SC[Dab][AEEA][AEEA]-{NH(CH2)12COOH}; thioether N-14) | 6.2
4 | CCC[C@@H]1NC(=O)CSC[C@@H](C(=O)N[C@@H](CCN)C(=O)NCCOCCOCCOCCOCCC(=O)NCCCCCCCCCCCCC(=O)O)NC(=O)[C@H](CO)NC(=O)[C@H](C(C)(C)O)NC(=O)[C@H](CC2CCCCC2)NC(=O)[C@H](CCN)NC(=O)[C@@H](CC(C)C)NC(=O)[C@H](CCCN)NC(=O)[C@H](Cc2ccc(OCC(=O)O)cc2)NC(=O)[C@H](Cc2ccc(-c3ccccc3)cc2)NC(=O)[C@H](Cc2ccc(OCC(=O)O)cc2)NC(=O)[C@H](Cc2cccc(C(F)(F)F)c2)NC(=O)[C@H](CC(=O)O)NC(=O)[C@H](Cc2ccc(C(=O)O)cc2)NC1=O [Compound 2901] ({CH2CO}-[Nva][Phe(4-COOH)]D[Phe(3-CF3)]Y(Carboxymethyl)[Bip]Y(Carboxymethyl)[Orn][dL][Dab][Cha][Val(3-OH)]SC[Dab][PEG4]-{NH(CH2)12COOH}; thioether N-14) | 24.1
5 | CCC[C@@H]1NC(=O)CSC[C@@H](C(=O)N[C@@H](CCN)C(=O)NCCCCCCCCCCCCCCC(=O)O)NC(=O)[C@H](CO)NC(=O)[C@H](C(C)(C)O)NC(=O)[C@H](CC2CCCCC2)NC(=O)[C@H](CCN)NC(=O)[C@@H](CC(C)C)NC(=O)[C@H](CCCN)NC(=O)[C@H](Cc2ccc(OCC(=O)O)cc2)NC(=O)[C@H](Cc2ccc(-c3ccccc3)cc2)NC(=O)[C@H](Cc2ccc(OCC(=O)O)cc2)NC(=O)[C@H](Cc2cccc(C(F)(F)F)c2)NC(=O)[C@H](CC(=O)O)NC(=O)[C@H](Cc2ccc(C(=O)O)cc2)NC1=O [Compound 2904] ({CH2CO}-[Nva][Phe(4-COOH)]D[Phe(3-CF3)]Y(Carboxymethyl)[Bip]Y(Carboxymethyl)[Orn][dL][Dab][Cha][Val(3-OH)]SC[Dab]-{NH(CH2)14COOH}; thioether N-14) | 518

Further compounds by falling IC50, results first:

Row | IC50 [nM] | Structure (SMILES)
6 | 282 | CCC[C@@H]1NC(=O)CSC[C@@H](C(=O)N[C@@H](CCN)C(=O)NCCOCCOCCOCCOCCC(=O)NCCCCCCCCCCCCCCC(=O)O)NC(=O)[C@H](CO)NC(=O)[C@H](C(C)(C)O)NC(=O)[C@H](CC2CCCCC2)NC(=O)[C@H](CCN)NC(=O)[C@@H](CC(C)C)NC(=O)[C@H](CCCN)NC(=O)[C@H](Cc2ccc(OCC(=O)O)cc2)NC(=O)[C@H](Cc2ccc(-c3ccccc3)cc2)NC(=O)[C@H](Cc2ccc(OCC(=O)O)cc2)NC(=O)[C@H](Cc2cccc(C(F)(F)F)c2)NC(=O)[C@H](CC(=O)O)NC(=O)[C@H](Cc2ccc(C(=O)O)cc2)NC1=O [Compound 2902] ({CH2CO}-[Nva][Phe(4-COOH)]D[Phe(3-CF3)]Y(Carboxymethyl)[Bip]Y(Carboxymethyl)[Orn][dL][Dab][Cha][Val(3-OH)]SC[Dab][PEG4]-{NH(CH2)14COOH}; thioether N-14)
7 | 97.7 | CCC[C@@H]1NC(=O)CSC[C@@H](C(=O)N[C@@H](CCN)C(=O)NCCOCCOCCOCCOCCC(=O)NCCCCCCCCCCCCCCC(=O)O)NC(=O)[C@H](CO)NC(=O)[C@H](C(C)(C)O)NC(=O)[C@H](CC2CCCCC2)NC(=O)[C@H](CCN)NC(=O)[C@@H](CC(C)C)NC(=O)[C@H](CCCN)NC(=O)[C@H](Cc2ccc(C(=O)O)cc2)NC(=O)[C@H](Cc2ccc(-c3ccccc3)cc2)NC(=O)[C@H](Cc2ccc(C(=O)O)cc2)NC(=O)[C@H](Cc2cccc(C(F)(F)F)c2)NC(=O)[C@H](CC(=O)O)NC(=O)[C@H](Cc2ccc(OCC(=O)O)cc2)NC1=O [Compound 2906] ({CH2CO}-[Nva]Y(Carboxymethyl)D[Phe(3-CF3)][Phe(4-COOH)][Bip][Phe(4-COOH)][Orn][dL][Dab][Cha][Val(3-OH)]SC[Dab][PEG4]-{NH(CH2)14COOH}; thioether N-14)
8 | 70.6 | COC[C@@H]1NC(=O)CSC[C@@H](C(=O)N[C@@H](CCN)C(=O)NCCOCCOCCOCCOCCC(=O)NCCCCCCCCCCCCC(=O)O)NC(=O)[C@H](CO)NC(=O)[C@H](C(C)(C)O)NC(=O)[C@H](CC2CCCCC2)NC(=O)[C@H](CCN)NC(=O)[C@@H](CC(C)C)NC(=O)[C@H](CCCN)NC(=O)[C@H](Cc2ccc(C(=O)O)cc2)NC(=O)[C@H](Cc2ccc(-c3ccccc3)cc2)NC(=O)[C@H](Cc2ccc(C(=O)O)cc2)NC(=O)[C@H](Cc2cccc(C(F)(F)F)c2)NC(=O)[C@H](CC(=O)O)NC(=O)[C@H](Cc2ccc(OCC(=O)O)cc2)NC1=O [Compound 2905] ({CH2CO}-S(Me)Y(Carboxymethyl)D[Phe(3-CF3)][Phe(4-COOH)][Bip][Phe(4-COOH)][Orn][dL][Dab][Cha][Val(3-OH)]SC[Dab][PEG4]-{NH(CH2)12COOH}; thioether N-14)
9 | 27.7 | CCC[C@@H]1NC(=O)CSC[C@@H](C(=O)N[C@@H](CCN)C(=O)NCCCCCCCCCCCCC(=O)O)NC(=O)[C@H](CO)NC(=O)[C@H](C(C)(C)O)NC(=O)[C@H](CC2CCCCC2)NC(=O)[C@H](CCN)NC(=O)[C@@H](CC(C)C)NC(=O)[C@H](CCCN)NC(=O)[C@H](Cc2ccc(OCC(=O)O)cc2)NC(=O)[C@H](Cc2ccc(-c3ccccc3)cc2)NC(=O)[C@H](Cc2ccc(OCC(=O)O)cc2)NC(=O)[C@H](Cc2cccc(C(F)(F)F)c2)NC(=O)[C@H](CC(=O)O)NC(=O)[C@H](Cc2ccc(C(=O)O)cc2)NC1=O [Compound 2903] ({CH2CO}-[Nva][Phe(4-COOH)]D[Phe(3-CF3)]Y(Carboxymethyl)[Bip]Y(Carboxymethyl)[Orn][dL][Dab][Cha][Val(3-OH)]SC[Dab]-{NH(CH2)12COOH}; thioether N-14)
10 | 4.1 | Cc1cccc(C[C@@H]2NC(=O)[C@H](CC(=O)O)NC(=O)[C@H](Cc3ccc(OCC(=O)O)cc3)NC(=O)[C@H](CN3CCOCC3)NC(=O)CSC[C@@H](C(=O)N[C@@H](CCN)C(=O)NCCOCCOCC(=O)NCCOCCOCC(=O)NCCCCCCCCCCCCC(=O)O)NC(=O)[C@H](CO)NC(=O)[C@H](C(C)(C)O)NC(=O)[C@H](CC3CCCCC3)NC(=O)[C@H](CCN)NC(=O)[C@@H](CC(C)C)NC(=O)[C@H](CCCN)NC(=O)[C@H](Cc3ccc(OCC(=O)O)cc3)NC(=O)[C@H](Cc3ccc(-c4ccccc4)cc3)NC(=O)[C@H](Cc3ccc(OCC(=O)O)cc3)NC2=O)c1 [Compound 2896] ({CH2CO}-[Ala(morpholin-4-yl)]Y(Carboxymethyl)D[Phe(3-Me)]Y(Carboxymethyl)[Bip]Y(Carboxymethyl)[Orn][dL][Dab][Cha][Val(3-OH)]SC[Dab][AEEA][AEEA]-{NH(CH2)12COOH}; thioether N-14)
11 | 1.6 | Cc1cccc(C[C@@H]2NC(=O)[C@H](CC(=O)O)NC(=O)[C@H](Cc3ccc(OCC(=O)O)cc3)NC(=O)[C@H](CN3CCOCC3)NC(=O)CSC[C@@H](C(=O)N[C@@H](CCN)C(=O)NCCOCCOCC(=O)NCCOCCOCC(=O)NCCCCCCCCCCCCC(=O)O)NC(=O)[C@H](CO)NC(=O)[C@H](C(C)(C)O)NC(=O)[C@H](CC3CCCCC3)NC(=O)[C@H](CCN)NC(=O)[C@@H](CC(C)C)NC(=O)[C@H](CCCN)NC(=O)[C@H](Cc3ccc(C(=O)O)cc3)NC(=O)[C@H](Cc3ccc(-c4ccccc4)cc3)NC(=O)[C@H](Cc3ccc(C(=O)O)cc3)NC2=O)c1 [Compound 2897] ({CH2CO}-[Ala(morpholin-4-yl)]Y(Carboxymethyl)D[Phe(3-Me)][Phe(4-COOH)][Bip][Phe(4-COOH)][Orn][dL][Dab][Cha][Val(3-OH)]SC[Dab][AEEA][AEEA]-{NH(CH2)12COOH}; thioether N-14)
